Results as given in patent US7960168B2, “Biologically active substance transfer sheet, cell culture kit constituted of cell culture plate and biologically active substance transfer sheet, producing method thereof and method for screening cell culture conditions utilizing the same” (Canon Kabushiki Kaisha, priority 2003, dated 2011).

Tests used:
Assay type in all cases: cell-based
nerve cell strain PC12 = experiment: PC12 culture with immobilized EGF and dissolved EGF/NGF, hematoxilin-eosin staining (Example 6); details: PC12, 48 hours
Experimental: An epidermal cell growth factor (EGF) and a nerve cell growth factor (NGF) were employed as the biologically active substances. A culture plate of polystyrene 96-well cell culture plate was prepared by a process similar to that in Example 5, providing areas (wells) where EGF was immobilized with stepwise concentrations, and control areas (wells) of no immobilization. Separately, a stretchable polyolefin sheet was coated with hydroxypropyl cellulose by using a bar coater and heated for 10 minutes at 60° C. to form a holding layer. Then EGF and NGF were provided on the sheet by using a Canon ink jet printer PIXUS950i to obtain a transfer sheet on which areas carrying EGF and NGF singly or in combination. Screening was conducted with these cell culture plate and transfer sheet.
The transfer sheet was placed on the cell culture plate sterilized in advance with a sterilizing lamp and filled with a culture liquid, then the areas carrying biological substance(s) of the sheet were brought into contact with the culture liquid in the wells by pushing the opposite surface of the sheet with a pointed article, and the contact was maintained for 15 minutes under light shaking to dissolve the biologically active substance in the culture liquid. […]

[1] = system: mouse skeletal muscle cell strain C2C12; experiment: C2C12 culture on plate with immobilized b-FGF and IGF-I and BMP-2 transfer sheet, optical microscope (Example 5); details: C2C12, 96 hours
Experimental: The following method was employed for acting biologically active substances in combination on cells. As the biologically active substances, there were employed basic fibroblast cell growth factor (b-FGF), insulin-like growth factor (IGF-I) and bone morphogenetic protein (BMP-2).
First, bFGF and IGF-I were immobilized onto a polystyrene 96-well cell culture plate in the following manner.
On the cell culture plate coated with poly-L-lysine, a solution (1.5 mg/ml) of active dextran activated with tresyl chloride was added to bind the activated dextran to the plate. Then carbonate buffer solutions containing b-FGF and IGF-I respectively were prepared, applied to the microplate with various amounts. The microplate was left to stand for 12 hours at 4° C. to prepare a cell culture plate including areas where b-FGF and IGF-I were immobilized either singly or in combination with different concentrations, as well as control areas without immobilization.
A polystyrene sheet having projections corresponding the wells of the microplate was provided and sterilized. […]
Then the cells were treated with 10% formalin for 15 minutes and then with methanol for 15 minutes, and reacted with a fluorescent dye for 30 minutes for fluorescent staining of DNA. […] Thus the complex effects of three factors, namely immobilized bFGF, soluble IGF-I and BMP-2, to the cells were analyzed.

[2] = system: mouse skeletal muscle cell strain C2C12; experiment: C2C12 culture with BMP-2, sustained-release IGF-I and timed FGF-2 addition, ALP staining (Example 3)
Experimental: On the other hand, the 20 μg/ml solution of the insulin-like growth factor (IGF-I) contained 5% glycerin and 3% styrene-acrylic resin monoethanolamine salt (average molecular weight 8,000, acid value 250) for controlled release of IGF. Ink cartridges were washed with 70% ethanol, and were filled with the respective solutions of the biologically active substances.
Each polyolefin sheet was processed in advance to have minute holes at positions corresponding to the wells of a 96 well plate to allow gas exchange. A DMEM culture liquid containing FBS by 2% was put in wells of five 96-well transparent microplates. […] Then, in each well, cells of a mouse skeletal muscle cell strain C2C12 were added. Next, a transfer sheet carrying IGF-I was superimposed on each of the microplate and pressed from the above using the above jig so that each region of the sheet came in contact with the culture liquid in each well to gradually release IGF-I into the culture liquid, and cell culture was started. The above operations were carried out in the same manner with the five microplates. After a predetermined time from the start of the culture, the transfer sheet of one of the microplates was replaced by a transfer sheet carrying FGF-2 to dissolve FGF-2 into the culture liquid. After that the transfer sheet was replaced by the previous IGF-I sheet and the culture was continued. All the cells were cultured for 114 hours in total at 37° C., in humidified air containing 5% CO2. The FGF-2 addition was conducted at the following points:
(1) immediately after the start of culture;
(2) 12 hours after the start of culture;
(3) 24 hours after the start of culture;
(4) 48 hours after the start of culture;
(5) 72 hours after the start of culture.

[3] = system: mouse skeletal muscle cell strain C2C12; experiment: C2C12 culture with transfer sheet carrying b-FGF, IGF-I and BMP-2, microscope observation (Example 1); details: C2C12, 96 hours culture
Experimental: Basic fibroblast cell growth factor (b-FGF), insulin-like growth factor (IGF-I) and bone morphogenetic protein (BMP-2) were used as the biologically active substance. b-FGF was dissolved in a physiological saline solution, IGF-I in 10 mM acetic acid, and BMP-2 in 4 mM hydrochloric acid to prepare solutions each containing the biologically active substance at a concentration of 20 μg/ml and 5% glycerin. Ink cartridges were washed with 70% ethanol, to which the respective solutions prepared above were filled.
Then, on a base of a polyolefin sheet (NOVIX-II® manufactured by Asahi Techno Glass), sterilized in advance with a sterilizing lamp, the biologically active substances were discharged by using an ink jet printer (Ink jet printer F930, Canon). […]
The cells after the culture were treated with 10% formalin for 15 minutes and then with methanol for 15 minutes, and finally with a 1000-fold dilution of fluorescent dye (TOTO-3 manufactured by Molecular Probe) for 30 minutes for fluorescent staining of DNA. […] Also the cells were subjected to freeze-fracture and the creatinkinase (KP) and alkaliphosphatase (ALP) activities were measured.

[4] = system: mouse skeletal muscle cell strain C2C12; experiment: C2C12 culture with sequential transfer sheets A and B, CK and ALP activities (Example 2); details: C2C12, areas containing IGF-I only
Text: As the biologically active substances, fibroblast cell growth factor-2 (FGF-2), insulin-like growth factor-I (IGF-I), bone morphogenetic protein-2 (BMP-2) and transforming growth factor-β (TGF-β) were employed.
A DMEM culture liquid containing 2% FBS was put into wells of two 96-well transparent microplates 1 and 2. […] In this manner, the sheet A was used to provide FGF-2 and IGF-I to the microplate 1, and the sheet B was used to provide BMP-2 and TGF-β to the microplate 2. Then, in each well of each microplate, cells of mouse skeletal muscle cell strain C2C12 were cultured for 48 hours in humidified air supplied with 5% CO2. 48 hours after the start of the culture, the culture liquid was removed from each cell by suction. After fresh 2% FBS/DMEM was added to each well, a transfer sheet B was applied to the microplate 1 to supply BMP-2 and TGF-β, while a transfer sheet B was applied to the microplate 2 to supply FGF-2 and IGF-I, and the cell culture was conducted for further 48 hours.

For “EGF: epidermal cell growth factor, immobilized on the plate or dissolved from the sheet”, the “effect on proliferation and differentiation (nuclei and cell morphology), immobilized state versus dissolved state” value (nerve cell strain PC12) was “affected the PC12 cells differently”.
For “b-FGF: Basic fibroblast cell growth factor, a cell growth factor used as biologically active substance”, the “cell proliferation (optical microscope)” value ([1]; areas containing immobilized b-FGF) was “cell proliferation”, the “ALP staining (index for bone differentiation by BMP-2)” value ([2]; FGF-2 added (1) immediately after the start of culture) was “stained portions were scarcely observed” and the “ALP staining (index for bone differentiation by BMP-2)” value ([2]; FGF-2 added (2) 12 hours after the start of culture) was “stained portions were scarcely observed”. For the same substance, the “ALP staining (index for bone differentiation by BMP-2)” value ([2]; FGF-2 added (3) 24 hours after the start of culture) was “portions stained with ALP were confirmed”, the “ALP staining (index for bone differentiation by BMP-2)” value ([2]; FGF-2 added (4) 48 hours after the start of culture) was “portions stained with ALP were confirmed” and the “ALP staining (index for bone differentiation by BMP-2)” value ([2]; FGF-2 added (5) 72 hours after the start of culture) was “portions stained with ALP were confirmed”. The “bone differentiation from muscle cells into bone cells” value ([2]; adding FGF-2 within 24 hours after the start of the culture) was “significantly suppressed” and the “cell proliferation (microscope observation)” value ([3]; areas containing b-FGF) was “accelerated depending on the concentrations”.
In the case of “IGF-I: insulin-like growth factor used as biologically active substance”, the “muscle differentiation (optical microscope)” value ([1]; areas containing IGF-I) is reported as “muscle differentiation”, the “muscle differentiation (CK relative activity)” value [4] is reported as “accelerated” and the “differentiation into muscle cells (microscope observation)” value ([3]; areas containing IGF-I) is reported as “accelerated depending on the concentrations”.
